Test results reported in ChEMBL document CHEMBL1201862, “PubChem BioAssay data set” (2004).
Active and inactive are the calls of the source.

What was measured:
BJ [1] = test: BJ-TERT fibroblast viability loss – cell-based, RAS-independent, luminescence, dose response (AID 1933); type: functional; settings: Homo sapiens
BJ [2] = test: cells; type: functional, cell-based; settings: Homo sapiens
[3] = M. tuberculosis H37Rv growth inhibitors, H37Rv strain (AID 1626); type: functional
[4] = viability of PTEN-deleted HCT116 cells – cell-based, HCT116 PTEN knockout, dose response (AID 1047); type: functional;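 also: HCT116 colon tumor cells with PTEN knocked out; cells exposed to compound for 60 hours before readout; potency for loss of cell viability measured by luminescence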
[5] = viability of HCT116 lacking mutant beta-catenin – cell-based, human colon tumor, dose response (AID 1045); type: functional;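 also: HCT116 colon tumor cells with beta catenin knocked out; cells exposed to compound for 60 hours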
BJ [6] = test: BJ-TERT-LT-ST fibroblast viability loss – cell-based, RAS-independent, luminescence, dose response (AID 1935); type: functional; settings: Homo sapiens;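 also: BJ fibroblasts immortalized with TERT plus LT and ST oncogenes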
[7] = DRD fibroblast viability loss – cell-based, non-viral oncogenic, luminescence, dose response (AID 1934); type: functional; settings: Homo sapiens
[8] = Luminescence Cell-Based Dose Retest to Confirm Inhibitors of Cancer Stem Cells. [Related pubchem assays (depositor defined):AID2717, AID2721]; type: functional; settings: Homo sapiens
[9] = molecular target: T1, Endoribonuclease toxin MazF (Escherichia coli K-12, UniProt P0AE70); test: activation of MazEF endoribonuclease cleavage – biochemical, fluorescence, single-stranded RNA substrate, uHTS hits, dose response (AID 588481); type: functional
T1 sequence (P0AE70 whole entry): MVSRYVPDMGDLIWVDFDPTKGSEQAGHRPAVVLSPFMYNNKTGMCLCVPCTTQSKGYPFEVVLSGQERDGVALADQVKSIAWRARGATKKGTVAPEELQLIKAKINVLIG

Vero [10] = test: cells; type: functional, cell-based; settings: Chlorocebus sabaeus
[11] = molecular target: T1, Endoribonuclease toxin MazF; test: substrate-only fluorescence increase artefacts – biochemical, single-stranded RNase substrate, counter-screen for MazEF activator project, dose response (AID 588502); type: functional
Vero [12] = test: cells; type: functional; settings: Chlorocebus sabaeus
[13] = molecular target: Potassium voltage-gated channel subfamily KQT member 2 (Rattus norvegicus, UniProt O88943, W236L); test: potentiation of rat KCNQ2 current – cell-based, automated electrophysiology, mechanism study for KCNQ2 potentiator project, dose response (AID 2603); type: functional
[14] = molecular target: T2, Replicative DNA helicase DnaB (Mycobacterium tuberculosis, UniProt P9WMR3); test: DnaB intein splicing inhibitors, dose response, biochemical, cell-free fluorescence (AID 449749); type: functional
T2 sequence (P9WMR3 whole entry): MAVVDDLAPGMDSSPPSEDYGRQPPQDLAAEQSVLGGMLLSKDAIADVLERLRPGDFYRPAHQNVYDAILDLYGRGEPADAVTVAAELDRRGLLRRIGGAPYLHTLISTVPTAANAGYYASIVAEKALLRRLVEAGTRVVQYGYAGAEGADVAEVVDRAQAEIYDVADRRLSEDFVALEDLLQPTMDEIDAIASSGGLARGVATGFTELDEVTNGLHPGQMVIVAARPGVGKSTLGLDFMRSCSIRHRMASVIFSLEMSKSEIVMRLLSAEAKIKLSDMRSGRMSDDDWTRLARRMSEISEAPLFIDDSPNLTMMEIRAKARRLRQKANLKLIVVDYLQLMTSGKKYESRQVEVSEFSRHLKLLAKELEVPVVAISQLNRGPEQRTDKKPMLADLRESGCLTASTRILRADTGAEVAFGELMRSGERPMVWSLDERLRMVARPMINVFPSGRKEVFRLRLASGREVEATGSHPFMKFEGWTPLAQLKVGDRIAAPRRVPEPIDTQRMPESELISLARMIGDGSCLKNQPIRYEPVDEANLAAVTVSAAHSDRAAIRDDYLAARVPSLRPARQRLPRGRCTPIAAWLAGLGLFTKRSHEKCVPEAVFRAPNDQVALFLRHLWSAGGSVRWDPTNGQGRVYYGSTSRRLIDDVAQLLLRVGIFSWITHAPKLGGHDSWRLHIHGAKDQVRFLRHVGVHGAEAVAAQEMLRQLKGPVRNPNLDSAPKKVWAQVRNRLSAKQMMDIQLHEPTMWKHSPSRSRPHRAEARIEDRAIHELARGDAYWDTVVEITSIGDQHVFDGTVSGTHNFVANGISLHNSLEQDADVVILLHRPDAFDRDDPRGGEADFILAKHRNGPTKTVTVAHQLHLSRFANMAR

Protein RecA = molecular target: T3, Protein RecA (Mycobacterium tuberculosis, UniProt P9WHJ3); test: Fluorescence Cell-Free Homogeneous Dose Retest to Identify Inhibitors of RecA-Intein Splicing Activity. [Related pubchem assays (depositor defined):AID2097, AID2223, AID489010, AID492950]; type: functional
T3 sequence (P9WHJ3 whole entry): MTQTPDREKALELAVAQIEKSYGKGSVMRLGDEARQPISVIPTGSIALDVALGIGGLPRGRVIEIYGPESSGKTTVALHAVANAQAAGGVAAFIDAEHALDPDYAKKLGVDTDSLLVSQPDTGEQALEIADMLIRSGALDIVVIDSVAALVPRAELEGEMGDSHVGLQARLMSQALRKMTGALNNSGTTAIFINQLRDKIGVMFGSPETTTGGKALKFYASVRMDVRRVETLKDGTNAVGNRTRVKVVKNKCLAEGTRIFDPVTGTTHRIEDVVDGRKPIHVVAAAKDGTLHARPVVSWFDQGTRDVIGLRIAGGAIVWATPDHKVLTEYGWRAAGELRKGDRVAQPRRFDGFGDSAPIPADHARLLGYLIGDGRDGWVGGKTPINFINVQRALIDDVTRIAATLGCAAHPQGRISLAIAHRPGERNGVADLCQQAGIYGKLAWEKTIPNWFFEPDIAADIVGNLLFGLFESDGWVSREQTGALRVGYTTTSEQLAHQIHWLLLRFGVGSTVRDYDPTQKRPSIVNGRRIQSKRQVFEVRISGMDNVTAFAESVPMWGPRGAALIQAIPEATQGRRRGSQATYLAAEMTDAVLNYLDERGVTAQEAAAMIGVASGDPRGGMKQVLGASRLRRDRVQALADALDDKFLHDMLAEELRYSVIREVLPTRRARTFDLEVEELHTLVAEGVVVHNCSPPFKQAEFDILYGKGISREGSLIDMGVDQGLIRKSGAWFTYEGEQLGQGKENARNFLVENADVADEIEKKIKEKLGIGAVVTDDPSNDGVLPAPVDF

[15] = reduction of Shn3 3'UTR-driven luciferase in osteoblasts – cell-based, Clone20 osteoblasts, firefly luciferase, cherry-picked, dose response (AID 624132); type: functional;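 also: firefly luciferase luminescence from reporter carrying the Shn3 3'UTR in osteoblasts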
[16] = loss of viability in HepG2 cells – cell-based, CellTiter-Glo, cherry-picked, cytotoxicity control for Shn3 inhibitor project, dose response (AID 624134); type: functional
[17] = non-specific 3'UTR reporter inhibition in Clone20-Shn3RL – cell-based, Renilla luciferase, cherry-picked, counter-screen for Shn3 inhibitor project, dose response (AID 624133); type: functional
[18] = molecular target: T4, Hepatocyte nuclear factor 4-alpha (Homo sapiens, UniProt P41235); type: functional, cell-based;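 also: biochemical luminescence-based dose-response counterscreen measuring inhibition of HNF4 dimerization, run alongside a screen for blockers of ABHD5–perilipin-5 interaction; split luciferase complementation of HNF4 fusion proteins in cell lysate measuring dimerization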
T4 sequence (P41235 whole entry): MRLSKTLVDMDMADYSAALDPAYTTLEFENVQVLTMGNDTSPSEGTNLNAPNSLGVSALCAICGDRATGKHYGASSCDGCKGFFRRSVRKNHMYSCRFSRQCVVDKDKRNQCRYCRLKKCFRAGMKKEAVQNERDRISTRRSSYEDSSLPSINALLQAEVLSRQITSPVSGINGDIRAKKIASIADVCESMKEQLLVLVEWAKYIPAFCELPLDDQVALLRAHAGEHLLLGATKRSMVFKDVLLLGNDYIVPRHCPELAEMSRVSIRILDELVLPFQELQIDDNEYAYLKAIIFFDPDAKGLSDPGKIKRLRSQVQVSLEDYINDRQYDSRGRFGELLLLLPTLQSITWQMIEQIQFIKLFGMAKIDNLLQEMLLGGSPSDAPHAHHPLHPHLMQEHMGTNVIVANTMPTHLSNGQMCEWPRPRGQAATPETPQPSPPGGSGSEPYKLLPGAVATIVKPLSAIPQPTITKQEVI

[19] = molecular target: Serine/threonine-protein phosphatase PP1-alpha catalytic subunit (Homo sapiens, UniProt P62136); test: inhibition of protein phosphatase 1 activity – biochemical, fluorescence, dose response (AID 2394)
[20] = molecular target: Serine/threonine-protein phosphatase (Homo sapiens, UniProt Q9BPW0); test: inhibition of protein phosphatase 5 activity – biochemical, fluorescence, dose response (AID 2395)
[21] = HPDE-C7 pancreatic duct cell viability loss – fluorescence, HTS (AID 430); type: functional, cell-based; settings: Homo sapiens
[22] = molecular target: T5, Mannose-6-phosphate isomerase (Homo sapiens, UniProt P34949); test: MPI enzyme activity inhibition – biochemical, fluorescence intensity, coupled assay, primary screen (AID 1209)
T5 sequence (P34949 whole entry): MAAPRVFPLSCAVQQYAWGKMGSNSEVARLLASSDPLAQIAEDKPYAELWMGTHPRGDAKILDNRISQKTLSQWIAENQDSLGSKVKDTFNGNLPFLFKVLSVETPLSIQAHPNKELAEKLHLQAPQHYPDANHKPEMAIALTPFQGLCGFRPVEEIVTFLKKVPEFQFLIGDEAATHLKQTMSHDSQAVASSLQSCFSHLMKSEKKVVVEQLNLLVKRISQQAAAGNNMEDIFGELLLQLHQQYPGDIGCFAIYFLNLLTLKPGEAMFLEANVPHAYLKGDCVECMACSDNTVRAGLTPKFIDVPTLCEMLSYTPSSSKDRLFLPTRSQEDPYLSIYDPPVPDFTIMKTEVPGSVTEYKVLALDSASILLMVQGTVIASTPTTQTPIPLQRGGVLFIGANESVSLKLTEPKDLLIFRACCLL

[23] = viability loss of HPDE-C7K cells – cell-based, fluorescence, HTS, primary screen (AID 431); type: functional; settings: Homo sapiens
[24] = molecular target: T5, Mannose-6-phosphate isomerase; test: MPI inhibition at elevated mannose 6-phosphate – biochemical, fluorescence intensity, high mannose 6-phosphate, primary screen (AID 1220)
Nonstructural protein 1 = Nonstructural protein 1 (Influenza A virus, UniProt Q194T2); type: functional, Influenza A virus (A/California/07/2009(H1N1))
Genome polyprotein = Genome polyprotein (dengue virus type 2, UniProt P29990); test: flavivirus cap methylation enzyme inhibition – biochemical, confirmation dose response, primary screen (AID 588689); type: functional
[25] = molecular target: Sphingosine 1-phosphate receptor 2 (Homo sapiens, UniProt O95136); test: Dose Response Cell Based Assay for Agonists of the S1P2 Receptor of Purchased Analogues. [Related pubchem assays: 729, 843, 854, 736 ]; type: functional
[26] = Luminescence-based dose response cell-based high throughput screening assay for cytotoxic compounds using the IEC-6 intestinal epithelial cell line. [Related pubchem assays: 1858 (Summary AID.), 1825 (Counterscreen.), 1907 (Confirmation screen.)]; type: functional
[27] = molecular target: T6, Ubiquitin-conjugating enzyme E2 N (Homo sapiens, UniProt P61088); type: functional;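 also: Dose-response confirmation in a TR-FRET assay detecting UBC13-driven polyubiquitin chain formation, inhibition measured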
T6 sequence (P61088 whole entry): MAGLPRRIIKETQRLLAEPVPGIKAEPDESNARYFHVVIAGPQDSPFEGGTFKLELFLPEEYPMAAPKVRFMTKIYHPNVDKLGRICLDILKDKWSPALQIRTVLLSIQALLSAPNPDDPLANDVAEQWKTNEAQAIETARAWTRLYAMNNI

[28] = molecular target: Transitional endoplasmic reticulum ATPase (Homo sapiens, UniProt P55072, C522A); test: Luminescence counterscreen assay for p97 inhibitors: dose response biochemical high throughput screening assay to identify inhibitors of the C522A mutant p97 ATPase: synthesized compounds. [Related pubchem assays: 1481, 1517, 1551 ]
[29] = molecular target: Transitional endoplasmic reticulum ATPase (Homo sapiens, UniProt P55072); test: Luminescence dose response biochemical high throughput screening assay for inhibitors of the p97 ATPase: synthesized compounds. [Related pubchem assays: 1481, 1517 ]
Transitional endoplasmic reticulum ATPase (Homo sapiens, UniProt P55072), sequence (P55072 whole entry): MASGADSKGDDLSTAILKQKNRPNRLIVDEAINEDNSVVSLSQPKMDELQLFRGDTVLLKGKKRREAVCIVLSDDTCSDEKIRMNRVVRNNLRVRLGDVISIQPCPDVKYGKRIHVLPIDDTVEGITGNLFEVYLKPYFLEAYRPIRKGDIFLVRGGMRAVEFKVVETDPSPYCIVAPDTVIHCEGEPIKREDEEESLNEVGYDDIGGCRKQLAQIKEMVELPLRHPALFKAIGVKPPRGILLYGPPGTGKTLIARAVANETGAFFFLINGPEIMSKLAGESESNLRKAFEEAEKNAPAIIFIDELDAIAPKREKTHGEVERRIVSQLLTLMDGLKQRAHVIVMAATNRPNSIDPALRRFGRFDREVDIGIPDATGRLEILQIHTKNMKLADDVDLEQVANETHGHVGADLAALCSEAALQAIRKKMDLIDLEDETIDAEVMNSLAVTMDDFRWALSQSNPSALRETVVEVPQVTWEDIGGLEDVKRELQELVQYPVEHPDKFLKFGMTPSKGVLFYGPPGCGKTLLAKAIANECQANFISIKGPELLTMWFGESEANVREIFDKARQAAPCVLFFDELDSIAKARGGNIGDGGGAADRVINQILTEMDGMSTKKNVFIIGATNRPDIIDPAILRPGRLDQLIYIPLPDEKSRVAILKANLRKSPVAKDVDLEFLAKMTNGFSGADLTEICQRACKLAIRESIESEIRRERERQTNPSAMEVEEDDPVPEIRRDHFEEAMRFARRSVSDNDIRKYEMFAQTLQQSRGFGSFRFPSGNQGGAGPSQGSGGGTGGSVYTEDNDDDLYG

Serine/threonine-protein phosphatase PP1-alpha catalytic subunit, sequence (P62136 whole entry): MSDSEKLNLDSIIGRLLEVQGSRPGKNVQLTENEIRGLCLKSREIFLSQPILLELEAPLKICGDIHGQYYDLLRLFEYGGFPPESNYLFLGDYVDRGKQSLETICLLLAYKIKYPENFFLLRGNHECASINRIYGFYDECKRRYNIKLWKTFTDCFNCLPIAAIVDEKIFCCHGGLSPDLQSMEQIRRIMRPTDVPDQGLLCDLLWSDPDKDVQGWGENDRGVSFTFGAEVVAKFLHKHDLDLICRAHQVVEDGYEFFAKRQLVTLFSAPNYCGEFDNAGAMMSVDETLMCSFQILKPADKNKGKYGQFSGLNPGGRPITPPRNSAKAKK
Transitional endoplasmic reticulum ATPase (Homo sapiens, UniProt P55072, C522A), sequence (P55072 2-806 C522A limits assumed): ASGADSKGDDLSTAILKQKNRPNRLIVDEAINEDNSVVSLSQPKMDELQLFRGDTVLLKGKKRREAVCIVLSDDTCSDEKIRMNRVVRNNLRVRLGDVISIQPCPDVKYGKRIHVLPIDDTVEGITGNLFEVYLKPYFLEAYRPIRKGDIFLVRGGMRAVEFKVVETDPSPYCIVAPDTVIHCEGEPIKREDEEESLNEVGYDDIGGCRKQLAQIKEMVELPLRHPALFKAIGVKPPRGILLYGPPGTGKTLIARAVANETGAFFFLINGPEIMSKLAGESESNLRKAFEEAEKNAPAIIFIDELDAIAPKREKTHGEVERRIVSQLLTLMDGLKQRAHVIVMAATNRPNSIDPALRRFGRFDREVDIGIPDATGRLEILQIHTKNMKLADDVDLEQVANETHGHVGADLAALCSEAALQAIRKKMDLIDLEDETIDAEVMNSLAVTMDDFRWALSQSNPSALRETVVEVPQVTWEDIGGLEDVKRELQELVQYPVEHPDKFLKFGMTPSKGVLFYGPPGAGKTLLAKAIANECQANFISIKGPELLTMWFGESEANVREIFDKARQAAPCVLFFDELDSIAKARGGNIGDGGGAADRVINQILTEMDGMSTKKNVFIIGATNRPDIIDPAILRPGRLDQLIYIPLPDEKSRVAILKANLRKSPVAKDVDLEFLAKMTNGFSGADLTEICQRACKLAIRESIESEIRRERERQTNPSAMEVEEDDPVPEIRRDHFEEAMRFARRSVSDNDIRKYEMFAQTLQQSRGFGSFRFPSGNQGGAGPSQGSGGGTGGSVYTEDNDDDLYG
Potassium voltage-gated channel subfamily KQT member 2, sequence (O88943 whole entry W236L): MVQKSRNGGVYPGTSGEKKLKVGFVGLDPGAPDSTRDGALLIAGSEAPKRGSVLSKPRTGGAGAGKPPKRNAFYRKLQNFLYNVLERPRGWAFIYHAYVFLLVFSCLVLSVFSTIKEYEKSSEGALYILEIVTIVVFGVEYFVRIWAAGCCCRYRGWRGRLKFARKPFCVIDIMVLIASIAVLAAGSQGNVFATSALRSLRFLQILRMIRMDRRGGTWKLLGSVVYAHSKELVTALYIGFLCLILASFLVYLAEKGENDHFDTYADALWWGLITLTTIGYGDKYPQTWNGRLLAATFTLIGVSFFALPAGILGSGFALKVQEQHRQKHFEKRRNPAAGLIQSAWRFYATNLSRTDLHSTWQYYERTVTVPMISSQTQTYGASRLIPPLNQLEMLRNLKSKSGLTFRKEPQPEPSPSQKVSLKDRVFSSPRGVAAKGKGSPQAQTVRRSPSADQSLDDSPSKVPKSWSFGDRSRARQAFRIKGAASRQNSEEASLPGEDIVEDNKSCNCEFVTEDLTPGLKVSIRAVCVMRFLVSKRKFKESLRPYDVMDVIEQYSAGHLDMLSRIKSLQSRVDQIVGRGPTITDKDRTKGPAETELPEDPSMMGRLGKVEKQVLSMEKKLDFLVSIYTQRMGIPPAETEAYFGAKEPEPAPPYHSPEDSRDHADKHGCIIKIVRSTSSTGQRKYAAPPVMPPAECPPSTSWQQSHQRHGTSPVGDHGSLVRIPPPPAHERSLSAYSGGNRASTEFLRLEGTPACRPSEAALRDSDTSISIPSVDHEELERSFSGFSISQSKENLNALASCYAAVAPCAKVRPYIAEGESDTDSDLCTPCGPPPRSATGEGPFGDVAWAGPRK
Nonstructural protein 1, sequence (Q194T2 whole entry): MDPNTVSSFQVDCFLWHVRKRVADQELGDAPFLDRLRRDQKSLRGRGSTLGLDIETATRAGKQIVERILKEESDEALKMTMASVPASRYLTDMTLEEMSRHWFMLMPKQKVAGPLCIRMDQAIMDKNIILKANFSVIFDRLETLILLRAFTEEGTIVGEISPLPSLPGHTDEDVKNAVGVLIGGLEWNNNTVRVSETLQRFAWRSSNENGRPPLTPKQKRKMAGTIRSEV
Genome polyprotein, sequence (P29990 2492-3391 limits assumed): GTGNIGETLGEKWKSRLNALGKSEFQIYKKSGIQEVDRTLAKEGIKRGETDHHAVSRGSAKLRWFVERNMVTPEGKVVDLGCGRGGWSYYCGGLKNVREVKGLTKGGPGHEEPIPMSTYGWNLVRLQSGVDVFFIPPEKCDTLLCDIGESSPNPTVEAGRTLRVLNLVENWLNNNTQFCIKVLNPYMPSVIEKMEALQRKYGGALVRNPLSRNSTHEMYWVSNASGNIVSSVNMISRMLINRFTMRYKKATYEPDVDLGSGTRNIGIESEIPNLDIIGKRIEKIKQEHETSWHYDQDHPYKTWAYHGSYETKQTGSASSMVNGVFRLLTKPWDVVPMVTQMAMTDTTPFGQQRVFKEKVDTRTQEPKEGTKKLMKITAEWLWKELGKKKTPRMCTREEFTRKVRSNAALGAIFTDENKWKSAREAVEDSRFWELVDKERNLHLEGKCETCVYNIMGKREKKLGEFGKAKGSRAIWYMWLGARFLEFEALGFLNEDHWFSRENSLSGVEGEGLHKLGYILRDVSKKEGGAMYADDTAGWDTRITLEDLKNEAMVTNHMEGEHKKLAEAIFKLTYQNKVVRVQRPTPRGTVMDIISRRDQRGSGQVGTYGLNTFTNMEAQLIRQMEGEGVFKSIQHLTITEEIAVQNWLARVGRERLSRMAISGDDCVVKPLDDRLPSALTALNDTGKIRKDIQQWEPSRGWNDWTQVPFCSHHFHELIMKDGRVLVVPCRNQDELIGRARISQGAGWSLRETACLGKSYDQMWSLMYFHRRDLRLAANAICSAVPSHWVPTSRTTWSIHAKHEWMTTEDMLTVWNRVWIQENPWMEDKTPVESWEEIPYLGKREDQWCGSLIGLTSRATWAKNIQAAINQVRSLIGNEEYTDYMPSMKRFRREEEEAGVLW
Sphingosine 1-phosphate receptor 2, sequence (O95136 whole entry): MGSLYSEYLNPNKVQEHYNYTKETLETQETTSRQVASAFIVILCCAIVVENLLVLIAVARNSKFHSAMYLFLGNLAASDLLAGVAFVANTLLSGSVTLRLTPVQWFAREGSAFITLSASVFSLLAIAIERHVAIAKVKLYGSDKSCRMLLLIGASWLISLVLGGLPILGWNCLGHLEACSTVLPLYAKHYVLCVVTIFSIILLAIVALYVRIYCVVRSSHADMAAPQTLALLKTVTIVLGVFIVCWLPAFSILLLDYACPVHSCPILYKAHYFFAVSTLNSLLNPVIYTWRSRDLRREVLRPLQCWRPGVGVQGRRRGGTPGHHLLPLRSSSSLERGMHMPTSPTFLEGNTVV
Serine/threonine-protein phosphatase, sequence (Q9BPW0 whole entry): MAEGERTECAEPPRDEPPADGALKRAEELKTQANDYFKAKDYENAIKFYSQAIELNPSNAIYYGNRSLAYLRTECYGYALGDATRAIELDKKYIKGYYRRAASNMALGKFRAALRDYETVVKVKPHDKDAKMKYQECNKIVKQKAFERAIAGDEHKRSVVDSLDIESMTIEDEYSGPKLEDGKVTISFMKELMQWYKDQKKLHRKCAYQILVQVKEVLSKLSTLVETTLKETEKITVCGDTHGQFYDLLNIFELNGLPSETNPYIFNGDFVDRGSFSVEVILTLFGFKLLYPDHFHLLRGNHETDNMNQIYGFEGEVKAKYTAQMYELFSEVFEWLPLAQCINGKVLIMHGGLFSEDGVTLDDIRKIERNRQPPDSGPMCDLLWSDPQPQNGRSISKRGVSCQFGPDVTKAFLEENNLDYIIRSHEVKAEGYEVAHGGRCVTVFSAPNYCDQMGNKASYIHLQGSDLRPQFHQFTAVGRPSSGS

Structure (SMILES): Cc1cccc(-n2c(/C=C/c3ccc([N+](=O)[O-])o3)nc3ccccc3c2=O)c1
- EC50 (BJ [1]): 5.28 µM (inconclusive)
- EC50 (BJ [2]): 4.86 µM (inconclusive)
- IC50 [3]: > 100 µM (active)
- EC50 [4]: 0.552 µM (active)
- EC50 [5]: 0.61 µM (active)
- EC50 (BJ [6]): 3.69 µM (inconclusive)
- EC50 [7]: 5.82 µM (active)
- AC50 [8]: 1.72 µM (active)
- EC50 [9]: > 99 µM (inactive)
- IC50 (Vero [10]): 10.8 µM (active)
- EC50 [11]: 8.27 µM (active)
- CC50 (Vero [12]): > 25 µM (active)

Structure (SMILES): Cc1nnc(NC(=O)c2nc(S(=O)(=O)Cc3ccccc3C)ncc2Cl)s1
- EC50 [13]: 692 µM (active)
- AC50 [14]: > 380 µM (inactive)
- EC50 (Protein RecA): > 380 µM (inactive)
- AC50 [15]: 0.812 µM (active)
- AC50 [16]: 57 µM (active)
- AC50 [17]: 14.5 µM (active)
- IC50 [18]: 4.41 µM (active)

Structure (SMILES): CCOC(=O)c1nn(-c2ccc(C)cc2)c(=O)c2c(N)scc12
- IC50 [19]: > 67 µM (not active)
- IC50 [20]: 9.99 µM (active)
- AC50 [14]: 89.9 µM (active)
- EC50 (Protein RecA): 11.4 µM (active)

Structure (SMILES): Cc1coc2c(O)cc3c(c12)OC1(N2CCCCC2)C(=O)NCCCC31 (centres undefined)
- EC50 [21]: 11 µM (active)
- IC50 [22]: 35.2 µM (active)
- EC50 [23]: 11.3 µM (active)
- IC50 [24]: > 50 µM (not active)
- IC50 (Nonstructural protein 1): > 100 µM (active)
- IC50 (Genome polyprotein): 27.4 µM (active)

Structure (SMILES): Cc1cc(C(=O)COC(=O)c2ccco2)c(C)n1Cc1ccccc1
- EC50 [25]: > 30 µM (not active)

Structure (SMILES): CCCC[C@H](CN[C@@H](CNC)[C@H](C)CC)NCCC12CCC(CC1)C2
- IC50 [26]: 6.54 µM (active)
- IC50 [27]: > 20 µM (inactive)

Structure (SMILES): N#Cc1ccc(Nc2nc(-c3ccc(O)cc3O)cs2)cc1
- IC50 [28]: > 50 µM (not active)
- IC50 [29]: 4.71 µM (active)
